# Assay results as given in publication PMC4468608, “A distinct p53 target gene set predicts for response to the selective p53–HDM2 inhibitor NVP-CGM097” (eLife, 2015).
# Like-named read-outs stand apart in the source and are kept apart here.
# System: cell lines from the Cancer Cell Line Encyclopedia (CCLE)
# Assay: High-throughput cell viability assay, CCLE cell line panel (n = 356)
# Assay type: cell-based, human
# Details: for IC50: Homo sapiens
# Procedure: Cell lines were partitioned into sensitive and insensitive groups based on compound potency (IC50). […] All other cell lines were obtained from ATCC (American Type Culture Collection), DSMZ (Deutsche Sammlung von Mikroorganismen und Zellkulturen), and HSRRB (Health Science Research Resources Bank) and cultured in RPMI or Dulbecco's modified Eagle's medium plus 10% FBS (Invitrogen, Carlsbad, CA) at 37°C, 5% CO2.
structure (smiles),measurement,setting,value
COc1cc2c(cc1OC(C)C)[C@H](c1ccc(Cl)cc1)N(c1ccc(N(C)C[C@H]3CC[C@H](N4CCNC(=O)C4)CC3)cc1)C(=O)C2 [NVP-CFC218],IC50,"read-out: NVP- CFC218 IC50 (µM), cell line MEL-HO, skin, TP53 WT",> 8 µM
same,IC50,"read-out: NVP- CFC218 IC50 (µM), cell line NCI-H1341, lung, TP53 WT",> 8 µM
same,IC50,"read-out: NVP- CFC218 IC50 (µM), cell line PE/CA-PJ41 (clone D2), upper_aerodigestive_tract, TP53 MUT",> 8 µM
same,IC50,"read-out: NVP- CFC218 IC50 (µM), cell line PEER, haem._and_lymphoid_tissue, TP53 MUT",> 8 µM
same,IC50,"read-out: NVP- CFC218 IC50 (µM), cell line SNG-M, endometrium, TP53 WT",> 8 µM
same,IC50,"read-out: NVP- CFC218 IC50 (µM), cell line Sq-1, lung, TP53 WT",> 8 µM
same,IC50,"read-out: NVP- CFC218 IC50 (µM), cell line TE-9, oesophagus, TP53 MUT",> 8 µM
same,IC50,"read-out: NVP- CFC218 IC50 (µM), cell line WM-88, skin, TP53 WT",> 8 µM
same,Amax,"Hs 729, TP53 MUT",7.88%
same,sensitivity call,"Hs 729, TP53 MUT",insensitive (Sensitivity call for each compound was applied according to a cut-off of 4 µM for IC50 and -50% for Amax)
same,Amax,"IGROV1, TP53 MUT",-1.82%
same,sensitivity call,"IGROV1, TP53 MUT",insensitive (Sensitivity call for each compound was applied according to a cut-off of 4 µM for IC50 and -50% for Amax)
same,Amax,"J82, TP53 MUT",-2.55%
same,sensitivity call,"J82, TP53 MUT",insensitive (Sensitivity call for each compound was applied according to a cut-off of 4 µM for IC50 and -50% for Amax)
same,Amax,"JHH-7, TP53 MUT",-2.28%
same,sensitivity call,"JHH-7, TP53 MUT",insensitive (Sensitivity call for each compound was applied according to a cut-off of 4 µM for IC50 and -50% for Amax)
same,Amax,"JHUEM-2, TP53 WT",-91.79%
same,sensitivity call,"JHUEM-2, TP53 WT",sensitive (Sensitivity call for each compound was applied according to a cut-off of 4 µM for IC50 and -50% for Amax)
same,Amax,"JMSU-1, TP53 MUT",2.12%
same,sensitivity call,"JMSU-1, TP53 MUT",insensitive (Sensitivity call for each compound was applied according to a cut-off of 4 µM for IC50 and -50% for Amax)
same,Amax,"KE-39, TP53 MUT",-5.22%
same,sensitivity call,"KE-39, TP53 MUT",insensitive (Sensitivity call for each compound was applied according to a cut-off of 4 µM for IC50 and -50% for Amax)
same,Amax,"KE-97, TP53 WT",-79.42%
same,sensitivity call,"KE-97, TP53 WT",sensitive (Sensitivity call for each compound was applied according to a cut-off of 4 µM for IC50 and -50% for Amax)
same,Amax,"KMM-1, TP53 MUT",-27.14%
same,sensitivity call,"KMM-1, TP53 MUT",insensitive (Sensitivity call for each compound was applied according to a cut-off of 4 µM for IC50 and -50% for Amax)
same,Amax,"KNS-60, TP53 MUT",-1.47%
same,sensitivity call,"KNS-60, TP53 MUT",insensitive (Sensitivity call for each compound was applied according to a cut-off of 4 µM for IC50 and -50% for Amax)
same,Amax,"KP-N-SI9s, TP53 WT",-92.10%
same,sensitivity call,"KP-N-SI9s, TP53 WT",sensitive (Sensitivity call for each compound was applied according to a cut-off of 4 µM for IC50 and -50% for Amax)
same,Amax,"KU812, TP53 MUT",19.95%
same,sensitivity call,"KU812, TP53 MUT",insensitive (Sensitivity call for each compound was applied according to a cut-off of 4 µM for IC50 and -50% for Amax)
same,Amax,"KYSE-30, TP53 MUT",-3.88%
same,sensitivity call,"KYSE-30, TP53 MUT",insensitive (Sensitivity call for each compound was applied according to a cut-off of 4 µM for IC50 and -50% for Amax)
same,Amax,"KYSE-70, TP53 MUT",-0.20%
same,sensitivity call,"KYSE-70, TP53 MUT",insensitive (Sensitivity call for each compound was applied according to a cut-off of 4 µM for IC50 and -50% for Amax)
same,Amax,"KYSE-140, TP53 MUT",-19.56%
same,sensitivity call,"KYSE-140, TP53 MUT",insensitive (Sensitivity call for each compound was applied according to a cut-off of 4 µM for IC50 and -50% for Amax)
same,Amax,"KYSE-180, TP53 MUT",-30.58%
same,sensitivity call,"KYSE-180, TP53 MUT",insensitive (Sensitivity call for each compound was applied according to a cut-off of 4 µM for IC50 and -50% for Amax)
same,Amax,"LCLC-103H, TP53 MUT",-1.79%
same,sensitivity call,"LCLC-103H, TP53 MUT",insensitive (Sensitivity call for each compound was applied according to a cut-off of 4 µM for IC50 and -50% for Amax)
same,Amax,"LK-2, TP53 MUT",-3.65%
same,sensitivity call,"LK-2, TP53 MUT",insensitive (Sensitivity call for each compound was applied according to a cut-off of 4 µM for IC50 and -50% for Amax)
same,Amax,"LN-18, TP53 MUT",-16.71%
same,sensitivity call,"LN-18, TP53 MUT",insensitive (Sensitivity call for each compound was applied according to a cut-off of 4 µM for IC50 and -50% for Amax)
same,Amax,"LOU-NH91, TP53 MUT",2.89%
same,sensitivity call,"LOU-NH91, TP53 MUT",insensitive (Sensitivity call for each compound was applied according to a cut-off of 4 µM for IC50 and -50% for Amax)
same,Amax,"LOX IMVI, TP53 WT",-48.25%
same,sensitivity call,"LOX IMVI, TP53 WT",insensitive (Sensitivity call for each compound was applied according to a cut-off of 4 µM for IC50 and -50% for Amax)
same,Amax,"LU65, TP53 MUT",-1.36%
same,sensitivity call,"LU65, TP53 MUT",insensitive (Sensitivity call for each compound was applied according to a cut-off of 4 µM for IC50 and -50% for Amax)
same,Amax,"MEG-01, TP53 MUT",0.30%
same,sensitivity call,"MEG-01, TP53 MUT",insensitive (Sensitivity call for each compound was applied according to a cut-off of 4 µM for IC50 and -50% for Amax)
same,Amax,"MKN74, TP53 MUT",2.29%
same,sensitivity call,"MKN74, TP53 MUT",insensitive (Sensitivity call for each compound was applied according to a cut-off of 4 µM for IC50 and -50% for Amax)
same,Amax,"MOG-G-UVW, TP53 WT",3.49%
same,sensitivity call,"MOG-G-UVW, TP53 WT",insensitive (Sensitivity call for each compound was applied according to a cut-off of 4 µM for IC50 and -50% for Amax)
same,Amax,"MOLM-16, TP53 MUT",12.84%
same,sensitivity call,"MOLM-16, TP53 MUT",insensitive (Sensitivity call for each compound was applied according to a cut-off of 4 µM for IC50 and -50% for Amax)
same,Amax,"MeWo, TP53 MUT",0.14%
same,sensitivity call,"MeWo, TP53 MUT",insensitive (Sensitivity call for each compound was applied according to a cut-off of 4 µM for IC50 and -50% for Amax)
same,Amax,"NCI-H23, TP53 MUT",-1.09%
same,sensitivity call,"NCI-H23, TP53 MUT",insensitive (Sensitivity call for each compound was applied according to a cut-off of 4 µM for IC50 and -50% for Amax)
same,Amax,"NCI-H1355, TP53 MUT",-28.98%
same,sensitivity call,"NCI-H1355, TP53 MUT",insensitive (Sensitivity call for each compound was applied according to a cut-off of 4 µM for IC50 and -50% for Amax)
same,Amax,"NCI-H1648, TP53 MUT",-2.43%
same,sensitivity call,"NCI-H1648, TP53 MUT",insensitive (Sensitivity call for each compound was applied according to a cut-off of 4 µM for IC50 and -50% for Amax)
same,Amax,"NCI-H1651, TP53 MUT",-2.57%
same,sensitivity call,"NCI-H1651, TP53 MUT",insensitive (Sensitivity call for each compound was applied according to a cut-off of 4 µM for IC50 and -50% for Amax)
same,Amax,"NCI-H2009, TP53 MUT",-6.28%
same,sensitivity call,"NCI-H2009, TP53 MUT",insensitive (Sensitivity call for each compound was applied according to a cut-off of 4 µM for IC50 and -50% for Amax)
same,Amax,"NCI-H2110, TP53 MUT",-4.78%
same,sensitivity call,"NCI-H2110, TP53 MUT",insensitive (Sensitivity call for each compound was applied according to a cut-off of 4 µM for IC50 and -50% for Amax)
same,Amax,"NCI-H2122, TP53 MUT",-89.07%
same,sensitivity call,"NCI-H2122, TP53 MUT",sensitive (Sensitivity call for each compound was applied according to a cut-off of 4 µM for IC50 and -50% for Amax)
same,Amax,"NCI-H2444, TP53 MUT",-4.64%
same,sensitivity call,"NCI-H2444, TP53 MUT",insensitive (Sensitivity call for each compound was applied according to a cut-off of 4 µM for IC50 and -50% for Amax)
same,Amax,"NCI-H2452, TP53 WT",-0.68%
same,sensitivity call,"NCI-H2452, TP53 WT",insensitive (Sensitivity call for each compound was applied according to a cut-off of 4 µM for IC50 and -50% for Amax)
same,Amax,"NCO2, TP53 MUT",-1.52%
same,sensitivity call,"NCO2, TP53 MUT",insensitive (Sensitivity call for each compound was applied according to a cut-off of 4 µM for IC50 and -50% for Amax)
same,Amax,"OCI-M1, TP53 MUT",-1.98%
same,sensitivity call,"OCI-M1, TP53 MUT",insensitive (Sensitivity call for each compound was applied according to a cut-off of 4 µM for IC50 and -50% for Amax)
same,Amax,"OE33, TP53 MUT",-2.82%
same,sensitivity call,"OE33, TP53 MUT",insensitive (Sensitivity call for each compound was applied according to a cut-off of 4 µM for IC50 and -50% for Amax)
